From publication PMC5216765, “Tumor suppressor berberine binds VASP to inhibit cell migration in basal-like breast cancer” (Oncotarget, 2016)

Target: T1, VASP (vasodilator-stimulated phosphoprotein) (Homo sapiens, UniProt P50552)
T1 construct: recombinant VASP expressed in E. coli Rosetta (IPTG, 18 °C), as previously described
Experiment: intrinsic tryptophan fluorescence quenching titration (excitation […] nm)
Format: binding
Conditions: 25 °C; 0.4 μM VASP; berberine 0 to 3.4 μM

T1 sequence (P50552 2-380): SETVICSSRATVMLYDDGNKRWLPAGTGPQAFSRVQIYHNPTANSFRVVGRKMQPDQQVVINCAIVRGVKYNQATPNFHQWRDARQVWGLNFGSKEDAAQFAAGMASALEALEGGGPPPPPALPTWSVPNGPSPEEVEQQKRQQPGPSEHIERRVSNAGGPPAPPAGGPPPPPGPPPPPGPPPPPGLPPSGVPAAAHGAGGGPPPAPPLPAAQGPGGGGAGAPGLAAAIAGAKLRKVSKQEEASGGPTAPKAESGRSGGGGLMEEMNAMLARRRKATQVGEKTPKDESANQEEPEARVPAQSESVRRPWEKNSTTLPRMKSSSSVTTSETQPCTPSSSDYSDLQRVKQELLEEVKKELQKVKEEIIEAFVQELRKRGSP

Compound: COc1ccc2cc3[n+](cc2c1OC)CCc1cc2c(cc1-3)OCO2 [berberine]
- Kd: 100 nM
